# Target: T1, hFXR (Homo sapiens, UniProt Q96RI1)
# T1 construct: expressed in transfected cells; host or cells: CV-1 cells
# T1 sequence (Q96RI1 1-486): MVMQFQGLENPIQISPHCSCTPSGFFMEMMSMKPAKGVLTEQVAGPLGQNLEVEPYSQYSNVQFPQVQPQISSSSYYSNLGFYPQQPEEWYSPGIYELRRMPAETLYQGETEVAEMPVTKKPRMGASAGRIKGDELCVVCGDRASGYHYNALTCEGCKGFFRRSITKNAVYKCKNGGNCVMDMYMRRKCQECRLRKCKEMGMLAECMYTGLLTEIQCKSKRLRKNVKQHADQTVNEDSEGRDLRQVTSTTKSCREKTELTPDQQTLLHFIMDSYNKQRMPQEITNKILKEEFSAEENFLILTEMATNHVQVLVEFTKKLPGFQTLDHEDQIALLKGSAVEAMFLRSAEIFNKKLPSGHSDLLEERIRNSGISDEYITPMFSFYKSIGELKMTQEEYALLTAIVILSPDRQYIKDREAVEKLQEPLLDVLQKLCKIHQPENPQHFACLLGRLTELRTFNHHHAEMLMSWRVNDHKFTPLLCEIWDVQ
# T1 sequence (P19793 1-462 partner): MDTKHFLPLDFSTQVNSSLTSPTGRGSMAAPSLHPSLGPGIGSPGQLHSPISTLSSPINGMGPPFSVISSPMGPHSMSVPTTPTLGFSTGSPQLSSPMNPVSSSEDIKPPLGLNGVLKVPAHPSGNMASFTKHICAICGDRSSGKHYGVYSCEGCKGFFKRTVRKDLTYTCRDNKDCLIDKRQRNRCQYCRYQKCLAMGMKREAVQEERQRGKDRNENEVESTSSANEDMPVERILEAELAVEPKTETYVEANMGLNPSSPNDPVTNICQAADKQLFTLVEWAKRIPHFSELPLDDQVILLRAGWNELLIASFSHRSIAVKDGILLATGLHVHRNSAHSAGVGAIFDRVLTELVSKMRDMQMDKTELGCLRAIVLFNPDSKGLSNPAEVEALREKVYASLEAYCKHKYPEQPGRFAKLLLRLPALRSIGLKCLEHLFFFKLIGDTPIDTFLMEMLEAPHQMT
# Assay: In Vitro FXR Assay (TK)
# Assay type: cell-based
# Settings: CV-1 cells transfected with hFXR, hRXR, TK-ECRE-luc and pCMX-YFP; incubated with compound for 18 hrs; luminescence
# Description: Example B-1: In Vitro FXR Assay (TK)
# CV-1 cells were seeded at a density of 2,000,000 cells in a T175 flask with DMEM+10% charcoal double-stripped FBS and incubated at 37° C. in 5% CO2 for 18 h (O/N).
# After 18 h of incubation, the medium in the T175 flask was changed with fresh DMEM+10% charcoal super-stripped serum. In a polypropylene tube, 2500 μL OptiMEM (Life Technologies, Cat #31985-062) was combined with expression plasmids for hFXR, hRXR, TK-ECRE-luc and pCMX-YFP. The tube was then briefly vortexed and incubated at room temperature for 5 minutes. Transfection reagent (X-tremeGENE HP from Roche, Cat #06 366 236 001) was added to the OptiMEM/plasmid mixture vortexed and incubated at room temperature for 20 minutes. Following incubation, the transfection reagent/DNA mixture complex was added to cells in the T175 flask and the cells were incubated at 37° C. in 5% CO2 for 18 h (O/N).
# Compounds were serially diluted in DMSO and added to transfected CV-1 cells. The cells were then incubated for 18 hrs. The next day cells were lysed and examined for luminescence.
row,EC50 [nM],Compound
1,50 to 1000,"COc1ccc(C23CCC(CN(c4cncc(-c5cnn(C(C)C)c5)c4)C(=O)[C@H]4CC[C@H](CC(=O)O)CC4)(CC2)CC3)cc1C (relative stereo) [Compound 2.11, trans-2-(4-((5-(1-Isopropyl-1H-pyrazol-4-yl)pyridin-3-yl)((4-(4-methoxy-3-methylphenyl)bicyclo[2.2.2]octan-1-yl)methyl)carbamoyl)cyclohexyl)acetic acid]"
2,1000 to 10000,"COc1ccc(C23CCC(CN(C(=O)[C@@H]4CCC[C@H](C(=O)O)C4)c4cc(-c5cnn(C(C)C)c5)ccn4)(CC2)CC3)cc1C (relative stereo) [Compound 3.05, cis-3-((4-(1-Isopropyl-1H-pyrazol-4-yl)pyridin-2-yl)((4-(4-methoxy-3-methylphenyl)bicyclo[2.2.2]octan-1-yl)methyl)carbamoyl)cyclohexanecarboxylic acid]"
3,50 to 1000,"COc1ccc(C23CCC(CN(C(=O)[C@@H]4CCC[C@@H](C(=O)O)C4)c4cc(-c5cnn(C(C)C)c5)ccn4)(CC2)CC3)cc1C (relative stereo) [Compound 3.06, trans-3-((4-(1-Isopropyl-1H-pyrazol-4-yl)pyridin-2-yl)((4-(4-methoxy-3-methylphenyl)bicyclo[2.2.2]octan-1-yl)methyl)carbamoyl)cyclohexanecarboxylic acid]"
4,50 to 1000,"COc1ccc(C23CCC(CN(c4ccnc(-c5cnn(C(C)C)c5)c4)C(=O)[C@H]4CC[C@H](CC(=O)O)CC4)(CC2)CC3)cc1C (relative stereo) [Compound 4.05, trans-2-(4-((2-(1-Isopropyl-1H-pyrazol-4-yl)pyridin-4-yl)((4-(4-methoxy-3-methylphenyl)bicyclo[2.2.2]octan-1-yl)methyl)carbamoyl)cyclohexyl)acetic acid]"
5,≤ 50,"COc1ccc(C23CCC(CN(c4cccc(-c5cnn(C(C)C)c5)n4)C(=O)[C@H]4CC[C@H](CC(=O)O)CC4)(CC2)CC3)cc1C (relative stereo) [Compound 4.06, trans-2-(4-((6-(1-Isopropyl-1H-pyrazol-4-yl)pyridin-2-yl)((4-(4-methoxy-3-methylphenyl)bicyclo[2.2.2]octan-1-yl)methyl)carbamoyl)cyclohexyl)acetic acid]"
6,≤ 50,"COc1ccc(C23CCC(CN(c4nccc(-c5cnn(C(C)C)c5)n4)C(=O)[C@H]4CC[C@H](CC(=O)O)CC4)(CC2)CC3)cc1C (relative stereo) [Compound 4.09, trans-2-(4-((4-(1-Isopropyl-1H-pyrazol-4-yl)pyrimidin-2-yl)((4-(4-methoxy-3-methylphenyl)bicyclo[2.2.2]octan-1-yl)methyl)carbamoyl)cyclohexyl)acetic acid]"
7,50 to 1000,"COc1ccc(C23CCC(CN(c4cncc(-c5cnn(C(C)C)c5)n4)C(=O)[C@H]4CC[C@H](CC(=O)O)CC4)(CC2)CC3)cc1C (relative stereo) [Compound 4.10, trans-2-(4-((6-(1-Isopropyl-1H-pyrazol-4-yl)pyrazin-2-yl)((4-(4-methoxy-3-methylphenyl)bicyclo[2.2.2]octan-1-yl)methyl)carbamoyl)cyclohexyl)acetic acid]"
8,≤ 50,"COc1ccc(C23CCC(CN(C(=O)[C@@H]4CCC[C@H](CC(=O)O)C4)c4cc(-c5cnn(C(C)C)c5)ccn4)(CC2)CC3)cc1C (relative stereo) [Compound 5, cis-2-(3-((4-(1-isopropyl-1H-pyrazol-4-yl)pyridin-2-yl)((4-(4-methoxy-3-methylphenyl)bicyclo[2.2.2]octan-1-yl)methyl)carbamoyl)cyclohexyl)acetic acid]"
9,50 to 1000,"COc1ccc(C23CCC(CN(C(=O)[C@@H]4CCC[C@@H](CC(=O)O)C4)c4cc(-c5cnn(C(C)C)c5)ccn4)(CC2)CC3)cc1C (relative stereo) [Compound 5.01, trans-2-(3-((4-(1-Isopropyl-1H-pyrazol-4-yl)pyridin-2-yl)((4-(4-methoxy-3-methylphenyl)bicyclo[2.2.2]octan-1-yl)methyl)carbamoyl)cyclohexyl)acetic acid]"
10,≤ 50,"COc1ccc(C23CCC(CN(c4cc(-c5cnn(C(C)C)c5)ccn4)C(=O)[C@H]4CC[C@H](CCC(=O)O)CC4)(CC2)CC3)cc1C [Compound 1, trans-3-(4-((4-(1-Isopropyl-1H-pyrazol-4-yl)pyridin-2-yl)((4-(4-methoxy-3-methylphenyl)bicyclo[2.2.2]octan-1-yl)methyl)carbamoyl)cyclohexyl)propanoic acid]"
11,≤ 50,"COc1ccc(C23CCC(CN(c4cc(-c5cnn(C(C)C)c5)ccn4)C(=O)[C@H]4CC[C@H](CC(=O)O)CC4)(CC2)CC3)cc1C [Compound 1.01, trans-2-(4-((4-(1-Isopropyl-1H-pyrazol-4-yl)pyridin-2-yl)((4-(4-methoxy-3-methylphenyl)bicyclo[2.2.2]octan-1-yl)methyl)carbamoyl)cyclohexyl)acetic acid]"
12,≤ 50,"CN(C)c1ccc(C23CCC(CN(c4cccc(-c5cnn(C(C)(C)C)c5)c4)C(=O)[C@H]4CC[C@H](CC(=O)O)CC4)(CC2)CC3)cn1 [Compound 2, trans-2-(4-((3-(1-(tert-Butyl)-1H-pyrazol-4-yl)phenyl)((4-(6-(dimethylamino)pyridin-3-yl)bicyclo[2.2.2]octan-1-yl)methyl)carbamoyl)cyclohexyl)acetic acid]"
13,≤ 50,"COc1ccc([C@H]2CC[C@H](CN(c3cccc(-c4cnn(C(C)C)c4)c3)C(=O)[C@H]3CC[C@H](C(=O)O)CC3)CC2)cc1C [Compound 2.01, trans-4-((3-(1-Isopropyl-1H-pyrazol-4-yl)phenyl)((trans-4-(4-methoxy-3-methylphenyl)cyclohexyl)methyl)carbamoyl) cyclohexanecarboxylic acid]"
14,50 to 1000,"COc1ccc([C@H]2CC[C@H](CN(c3cccc(-c4cnn(C(C)(C)C)c4)c3)C(=O)[C@H]3CC[C@H](C(=O)O)CC3)CC2)cc1C [Compound 2.02, trans-4-((3-(1-(tert-Butyl)-1H-pyrazol-4-yl)phenyl)((trans-4-(4-methoxy-3-methylphenyl)cyclohexyl)methyl)carbamoyl) cyclohexanecarboxylic acid]"
15,≤ 50,"COc1ccc(C23CCC(CN(c4cccc(-c5cnn(C(C)(C)C)c5)c4)C(=O)[C@H]4CC[C@H](C(=O)O)CC4)(CC2)CC3)cc1C [Compound 2.03, trans-4-((3-(1-(tert-Butyl)-1H-pyrazol-4-yl)phenyl)((4-(4-methoxy-3-methylphenyl)bicyclo[2.2.2]octan-1-yl)methyl)carbamoyl)cyclohexanecarboxylic acid]"
16,≤ 50,"COc1ccc([C@H]2CC[C@H](CN(c3cccc(-c4cnn(C(C)(C)C)c4)c3)C(=O)[C@H]3CC[C@H](CC(=O)O)CC3)CC2)cc1C [Compound 2.04, 2-(trans-4-((3-(1-(tert-Butyl)-1H-pyrazol-4-yl)phenyl)((trans-4-(4-methoxy-3-methylphenyl)cyclohexyl)methyl)carbamoyl)cyclohexyl)acetic acid]"
17,50 to 1000,"COc1ccc([C@H]2CC[C@H](CN(c3cc(-c4cnn(C(C)(C)C)c4)ccn3)C(=O)[C@H]3CC[C@H](CC(=O)O)CC3)CC2)cc1C [Compound 2.05, 2-(trans-4-((4-(1-(tert-Butyl)-1H-pyrazol-4-yl)pyridin-2-yl)((trans-4-(4-methoxy-3-methylphenyl)cyclohexyl)methyl)carbamoyl)cyclohexyl)acetic acid]"
18,≤ 50,"COc1ccc(C23CCC(CN(c4cccc(-c5cnn(C(C)(C)C)c5)c4)C(=O)[C@H]4CC[C@H](CC(=O)O)CC4)(CC2)CC3)cc1C [Compound 2.06, trans-2-(4-((3-(1-(tert-Butyl)-1H-pyrazol-4-yl)phenyl)((4-(4-methoxy-3-methylphenyl)bicyclo[2.2.2]octan-1-yl)methyl)carbamoyl)cyclohexyl)acetic acid]"

# — patent US20220054469A1, “FARNESOID X RECEPTOR AGONISTS AND USES THEREOF” (Metacrine, Inc., priority 2018, published 2022)
